{
  "source": "patent US10111936B2",
  "about": "“Metal-glycoprotein complexes and photodynamic therapy of immune privileged sites with same” (Theralase Technologies, Inc., priority 2015, dated 2018)",
  "key": {"[1]": {"tested_on": "RG2 cells (rat glioblastoma tumor model)", "assay": "In vivo PDT in rat glioblastoma", "conditions": "ALA mediated PDT in RG2 tumor model; comparison", "description": "A four-month old rat was injected in the cerebral cortex with 5000 RG2 cells (rat glioblastoma tumor model). Eleven days later, the rat was injected with TLD1433 (5 mg/kg) with human apo-transferrin.\nPDT was administered 24 hours later. Light source and fluence: 808 nm wavelength, 300 J/cm^2 delivered at 100 mW. The number of photons absorbed was 2.8×10^17 photons/cm^3.\nA five-month old rat was injected in the cerebral cortex with 5000 RG2 cells. Eleven days later, the rat was injected with TLD1433 (5 mg/kg) with human apo-transferrin. PDT was administered 24 hours later. Light source and fluence: 808 nm wavelength, 600 J/cm^2 delivered at 200 mW. The number of photons absorbed was 4.41×10^18 photons/cm^3."}, "[2]": {"conditions": "cited from earlier work"}, "[3]": {"assay": "Absorbance / optical density with transferrin or OPTIFERRIN", "type": "physicochemical", "conditions": "novel absorption in the red (600 nm) and near infrared (800 nm)", "experimental": "Transferrin (0.2 mg/mL) was incubated with different photosensitizers (10 uM) and the absorbance spectra were obtained. […] Note that a large relative increase in absorbance may be accompanied by a small absolute difference and vice versa.\nThe optical density of TLD1433 was measured before and after the addition of either OPTIFERRIN (available from InVitria, a division of Ventria Bioscience) or human apo-transferrin (Sigma). […] This finding highlights the potential of using OPTIFERRIN to increase the efficacy of Theralase's TLD1433 photosensitizer. The increase in optical density will translate to a higher production of reactive oxygen species during PDT treatment. The absorption in red and near infrared light will allow for novel treatment applications for different tumors."}},
  "data": [
    {"molecule": "NCC(=O)CCC(=O)O", "note": "[aminolevulinic acid]", "values": [
      {"measurement": "post PDT survival", "setting": "[1]", "result": 8, "unit": "days"}
    ]},
    {"molecule": "Cn1nnc2c(C(N)=O)ncn2c1=O", "note": "[temozolomide]", "values": [
      {"measurement": "half-life", "setting": "[2]", "result": "approximately 1.8 hours"}
    ]},
    {"molecule": "TLD1433-OPTIFERRIN complex: complex of TLD1433 with OPTIFERRIN, a recombinant human transferrin", "values": [
      {"measurement": "optical density after addition of OPTIFERRIN", "setting": "[3]", "result": "substantial increase in optical density"}
    ]}
  ]
}
